# Data as given in US20240180898A1, “USE OF AMINOTHIAZOLE DERIVATIVE IN TREATMENT OF IMMUNE INFLAMMATION” (INNAMUNE PHARMACEUTICAL CO. LTD., priority 2021, published 2024).
# Key:
# [1] = system: allergic rhinitis model; experiment: OVA allergic rhinitis (AR) model; assay type: in vivo, mouse
# Experimental: To establish a model of AR, mice were injected intraperitoneally with 25 μg ovalbumin (OVA) and 2 mg aluminum hydroxide on days 0, 7, and 14 to promote primary sensitization. One week after the primary sensitization, the secondary immunization was built. Mice were intranasally challenged with 3% OVA daily from 21 to 35 days. Animals were divided into three groups: Sham group, AR group and AR+TJ-5 group. After 35 days of OVA administration, the number of mice rubbing and sneezing within 10 min was recorded. Nasal lavage fluid was collected 12 h after OVA treatment under anesthesia.
# [2] = system: mouse eczema model; experiment: mouse atopic dermatitis/eczema model; assay type: in vivo
# Experimental: Preparation and grouping of mouse […] model:
# Model preparation: Male C57 mice aged 6-8 weeks were treated with 2% M7309 (carboplatin) ointment on their ears once a day for 10 consecutive days.
# The experiment was divided into three groups, namely: • Eczema control group (without any treatment, eczema model group), TJ-M2010-5 systemic medication group (intraperitoneal injection), and TJ-M2010-5 local medication group (ointment group). The specific handling method is as follows: • TJ-M2010-5 systemic medication group: A mouse eczema model was taken and TJ-M2010-5 was injected intraperitoneally at a dose of 50 mg/kg, once a day, for 2 consecutive weeks. • TJ-M2010-5 local medication group: Take a mouse eczema model, apply 1% TJ-M2010-5 ointment on the skin, once a day, for 2 consecutive weeks.
# [3] = system: skin wound; experiment: full-thickness dorsal skin wound model; assay type: in vivo, mouse
# Text: The mice were anesthetized with isoflurane, and 1.5×0.5 cm full-thickness defects were created on their dorsal skin. Animals were divided into three groups: Sham group, Vehicle group and TJ-5 group. After 1 week, mice were sacrificed and wound tissue was harvested for analysis.
smiles,measurement,setting,value
"O=C(CCN1CCN(Cc2ccccc2)CC1)Nc1nc(-c2ccccc2)cs1 [INNA1605, 3-(4-benzylpiperazine-1-yl)-N-(4-phenylthiazole-2-yl) propionamide]","levels of IL-4, IL-1β, IL-18 and TNF-α in nasal mucosa","[1]; mouse, in vivo",decreased
same,sneezing and nasal rubbing,[1]; within 10 min after 35 days of OVA,relieved these symptoms
same,"therapeutic effect, local medication","[2]; 1% ointment once a day, 2 weeks",excellent therapeutic effects
same,abnormally thickened stratum corneum,[2]; after treatment,can basically restore normal tissue structure
same,inflammation,[2]; after treatment,significantly reduced
same,various inflammatory factors in the skin,"[2]; mouse, in vivo",decreased
same,skin scar formation,[3]; FIG. 42,prevents skin scar formation
same,"levels of IL-1β, IL-6, TNF-α, G-CSF, Col I, and α-SMA mRNAs in wound tissue","[3]; after 1 week, vs untreated",significantly lower
same,wound area,[3]; vs vehicle,significant decrease in wound area compared to the vehicle
